Laboratory results taken from ChEMBL document CHEMBL1126576, “Structure-activity relationships of the antimalarial agent artemisinin. 1. Synthesis and comparative molecular field analysis of C-9 analogs of artemisinin and 10-deoxoartemisinin” (1993).
The source made the active and inactive calls. No cut-off for these calls is given here.

Assays:
Plasmodium falciparum [1] = test: Relative activity against Plasmodium falciparum D6 (Sierra Leone) compared to artemisinin; assay type: functional
Plasmodium falciparum [2] = test: Relative activity against Plasmodium falciparum W2 Indochina compared to artemisinin; assay type: functional
Plasmodium falciparum [3] = test: Relative activity compared to artemisinin against Plasmodium falciparum Sierra Leone D6; assay type: functional
Plasmodium falciparum [4] = test: Relative activity compared to artemisinin against Plasmodium falciparum Indochina W2; assay type: functional
Plasmodium falciparum [5] = test: In vitro relative potency against Plasmodium falciparum Sierra Leone D6; assay type: functional
Plasmodium falciparum [6] = test: Relative activity compared to artemisinin against Plasmodium falciparum D6 (Sierra Leone); Not active; assay type: functional, organism-based
Plasmodium falciparum [7] = test: Relative activity compared to artemisinin against Plasmodium falciparum Indochina W-2; Not active; assay type: functional, organism-based

Row | Structure (SMILES) | Relative activity (Plasmodium falciparum [1]) | Relative activity (Plasmodium falciparum [2]) | also measured
1 | CC(C)C[C@H]1C(=O)O[C@@H]2O[C@@]3(C)CC[C@H]4[C@H](C)CC[C@@H]1[C@@]24OO3 | 0.2 | 0.24 | 
2 | CC[C@H]1C(=O)O[C@@H]2O[C@@]3(C)CC[C@H]4[C@H](C)CC[C@@H]1[C@@]24O3 |  |  | Relative activity (Plasmodium falciparum [3]): 0.001; Relative activity (Plasmodium falciparum [4]): 0.001
3 | CC12CCC3CCCC4CC(=O)OC(O1)C34OO2 (stereo unspecified) | 0.24 | 0.96 | 
4 | C[C@@H]1CC[C@H]2[C@@H](CCCc3ccccc3)C(=O)O[C@@H]3O[C@@]4(C)CC[C@@H]1[C@]32OO4 | 6.11 | 4.45 | 
5 | C[C@@H]1CC[C@H]2[C@@H](CCCc3ccccc3)C(=O)O[C@@H]3O[C@@]4(C)CC[C@@H]1[C@]32O4 |  |  | Relative activity (Plasmodium falciparum [3]): 0.15; Relative activity (Plasmodium falciparum [4]): 0.15
6 | CC(C)[C@H]1C(=O)O[C@@H]2O[C@@]3(C)CC[C@H]4[C@H](C)CC[C@@H]1[C@@]24O3 |  |  | Relative activity (Plasmodium falciparum [3]): 0.02; Relative activity (Plasmodium falciparum [4]): 0.07
7 | O=C1C=C2CCCC3CC4OO[C@@]23[C@H](O1)O4 (single isomer, unassigned) | 0.02 | 0.02 | 
8 | CO[C@]1(C)CC[C@H]2[C@H](C)CCC[C@]2(C=O)OO1 |  |  | Relative activity (Plasmodium falciparum [5]): 0.001
9 | CCCCC[C@H]1C(=O)O[C@@H]2O[C@@]3(C)CC[C@H]4[C@H](C)CC[C@@H]1[C@@]24O3 |  |  | Relative activity (Plasmodium falciparum [6]): inactive; Relative activity (Plasmodium falciparum [7]): inactive
10 | CC(C)CCC[C@H]1C(=O)O[C@@H]2O[C@@]3(C)CC[C@H]4[C@H](C)CC[C@@H]1[C@@]24OO3 | 0.31 | 0.74 | 
11 | CCCCCC[C@H]1C(=O)O[C@@H]2O[C@@]3(C)CC[C@H]4[C@H](C)CC[C@@H]1[C@@]24OO3 | 4.67 | 5.5 | 
12 | C[C@@H]1CC[C@H]2[C@](C)(Br)[C@@H](Nc3nccs3)O[C@@H]3O[C@@]4(C)CC[C@@H]1[C@]32OO4 |  |  | Relative activity (Plasmodium falciparum [5]): 0.62
13 | C[C@@H]1CC[C@H]2[C@@H](C)C(=O)O[C@@H]3O[C@@]4(C)CC[C@@H]1[C@]32OO4 [ARTEMISININ] | 1 | 1 | 
14 | C[C@@H]1CC[C@H]2[C@@H](CCCCc3ccccc3)C(=O)O[C@@H]3O[C@@]4(C)CC[C@@H]1[C@]32OO4 | 1.37 | 3 | 
15 | C[C@@H]1CC[C@H]2[C@@H](C)C(=O)O[C@@H]3O[C@@]4(C)CC[C@@H]1[C@]32O4 [DEOXYARTEMISININ] |  |  | Relative activity (Plasmodium falciparum [3]): 0.001; Relative activity (Plasmodium falciparum [4]): 0.001
16 | C[C@@H]1CC[C@H]2C(C)(C)C(=O)O[C@@H]3O[C@@]4(C)CC[C@@H]1[C@]32O4 |  |  | Relative activity (Plasmodium falciparum [6]): inactive; Relative activity (Plasmodium falciparum [7]): inactive
17 | C[C@@H]1CC[C@H]2[C@H](C)C(=O)O[C@@H]3O[C@@]4(C)CC[C@@H]1[C@]32O4 |  |  | Relative activity (Plasmodium falciparum [6]): inactive; Relative activity (Plasmodium falciparum [7]): inactive
18 | C[C@@H]1CC[C@H]2[C@](C)(Br)[C@@H](Nc3cccc(F)c3)O[C@@H]3O[C@@]4(C)CC[C@@H]1[C@]32OO4 |  |  | Relative activity (Plasmodium falciparum [5]): 3.5
19 | C=CC[C@H]1C(=O)O[C@@H]2O[C@@]3(C)CC[C@H]4[C@H](C)CC[C@@H]1[C@@]24O3 |  |  | Relative activity (Plasmodium falciparum [6]): inactive; Relative activity (Plasmodium falciparum [7]): inactive
20 | C=CC[C@H]1C(=O)O[C@@H]2O[C@@]3(C)CC[C@H]4[C@H](C)CC[C@@H]1[C@@]24OO3 | 0.31 | 0.72 | 
21 | C[C@H]1CO[C@@H]2O[C@@]3(C)CC[C@H]4CCC[C@@H]1[C@]42OO3 |  |  | Relative activity (Plasmodium falciparum [5]): 4.02
22 | CCCCC[C@H]1C(=O)O[C@@H]2O[C@@]3(C)CC[C@H]4[C@H](C)CC[C@@H]1[C@@]24OO3 | 3.67 | 8.67 | 
23 | CC1CCC2C(CCCCc3ccccc3)C(=O)OC3OC4(C)CCC1C32O4 (stereo unspecified) |  |  | Relative activity (Plasmodium falciparum [6]): inactive; Relative activity (Plasmodium falciparum [7]): inactive
24 | CC(C)CCC[C@H]1C(=O)O[C@@H]2O[C@@]3(C)CC[C@H]4[C@H](C)CC[C@@H]1[C@@]24O3 |  |  | Relative activity (Plasmodium falciparum [6]): inactive; Relative activity (Plasmodium falciparum [7]): inactive
25 | CCCC[C@H]1C(=O)O[C@@H]2O[C@@]3(C)CC[C@H]4[C@H](C)CC[C@@H]1[C@@]24OO3 | 0.96 | 1.28 | 
26 | C/C=C\CC1C(=O)O[C@@H]2O[C@@]3(C)CC[C@H]4[C@H](C)CC[C@@H]1[C@@]24OO3 (single isomer, unassigned) | 0.09 | 0.07 | 
27 | CC(C)CC[C@H]1C(=O)O[C@@H]2O[C@@]3(C)CC[C@H]4[C@H](C)CC[C@@H]1[C@@]24O3 |  |  | Relative activity (Plasmodium falciparum [3]): 0.13; Relative activity (Plasmodium falciparum [4]): 0.14
28 | CCCC[C@H]1C(=O)O[C@@H]2O[C@@]3(C)CC[C@H]4[C@H](C)CC[C@@H]1[C@@]24O3 |  |  | Relative activity (Plasmodium falciparum [6]): inactive; Relative activity (Plasmodium falciparum [7]): inactive

Row | Structure (SMILES) | Relative activity (Plasmodium falciparum [1]) | Relative activity (Plasmodium falciparum [2]) | also measured
29 | CCCCCCCCCCCCCC[C@H]1C(=O)O[C@@H]2O[C@@]3(C)CC[C@H]4[C@H](C)CC[C@@H]1[C@@]24O3 | 0.05 | 0.05 | 
30 | C[C@@H]1CC[C@H]2[C@](C)(Br)[C@@H](Nc3ncccn3)O[C@@H]3O[C@@]4(C)CC[C@@H]1[C@]32OO4 |  |  | Relative activity (Plasmodium falciparum [5]): 0.01
31 | C[C@@H]1CC[C@H]2[C@@H](CCc3ccccc3)C(=O)O[C@@H]3O[C@@]4(C)CC[C@@H]1[C@]32OO4 | 1.69 | 1 | 
32 | CCCC[C@H]1C(=O)O[C@@H]2OC(C)(C)OO[C@@]23CCCC[C@@H]13 |  |  | Relative activity (Plasmodium falciparum [5]): 0.1
33 | C[C@@H]1CC[C@H]2CC(=O)O[C@@H]3O[C@@]4(C)CC[C@@H]1[C@@]23OO4 | 1.8 | 6.5 | 
34 | CCC[C@H]1C(=O)O[C@@H]2O[C@@]3(C)CC[C@H]4[C@H](C)CC[C@@H]1[C@@]24OO3 | 5.5 | 12.25 | 
35 | C[C@@H]1CC[C@H]2CC(=O)O[C@@H]3O[C@@]4(C)CC[C@@H]1[C@@]23O4 |  |  | Relative activity (Plasmodium falciparum [6]): inactive; Relative activity (Plasmodium falciparum [7]): inactive
36 | C[C@@H]1CC[C@H]2[C@](C)(Br)[C@@H](Nc3ccccn3)O[C@@H]3O[C@@]4(C)CC[C@@H]1[C@]32OO4 |  |  | Relative activity (Plasmodium falciparum [5]): 0.02
37 | CC(C)[C@H]1C(=O)O[C@@H]2O[C@@]3(C)CC[C@H]4[C@H](C)CC[C@@H]1[C@@]24OO3 | 2.03 | 0.84 | 
38 | CC1(C)OO[C@]23CCCC[C@H]2CC(=O)O[C@@H]3O1 |  |  | Relative activity (Plasmodium falciparum [5]): 0.01
39 | CO[C@H]1O[C@@]2(C)CC[C@H]3CCCC[C@]31OO2 |  |  | Relative activity (Plasmodium falciparum [5]): 0.11
40 | C[C@@H]1CC[C@H]2[C@@H](C)C(=O)O[C@@H]3OC(C)(C)OO[C@@]32[C@H]1C |  |  | Relative activity (Plasmodium falciparum [5]): 0.4
41 | CO[C@@H]1O[C@@]2(C)CC[C@H]3CCCC[C@]31OO2 |  |  | Relative activity (Plasmodium falciparum [5]): 0.13
42 | C[C@@H]1CC[C@H]2C(C)(C)C(=O)O[C@@H]3O[C@@]4(C)CCC1[C@]32OO4 (stereo partly specified) | 0.02 | 0.006 | 
43 | C[C@@H]1CC[C@H]2[C@@H](CC(=O)O)C(=O)O[C@@H]3O[C@@]4(C)CC[C@@H]1[C@]32OO4 | 0.002 | 0.003 | 
44 | C[C@@H]1CC[C@H]2[C@](C)(Br)[C@@H](Nc3ccccc3)O[C@@H]3O[C@@]4(C)CC[C@@H]1[C@]32OO4 |  |  | Relative activity (Plasmodium falciparum [5]): 0.16
45 | CCCCCCCCCCCCCC[C@H]1C(=O)O[C@@H]2O[C@@]3(C)CC[C@H]4[C@H](C)CC[C@@H]1[C@@]24OO3 | 0.001 | 0.001 | 
46 | C/C=C/CC1C(=O)O[C@@H]2O[C@@]3(C)CC[C@H]4[C@H](C)CC[C@@H]1[C@@]24OO3 (single isomer, unassigned) | 0.38 | 0.22 | 
47 | CCC[C@H]1C(=O)O[C@@H]2O[C@@]3(C)CC[C@H]4[C@H](C)CC[C@@H]1[C@@]24O3 |  |  | Relative activity (Plasmodium falciparum [3]): 0.06; Relative activity (Plasmodium falciparum [4]): 0.07
48 | CC[C@H]1C(=O)O[C@@H]2O[C@@]3(C)CC[C@H]4[C@H](C)CC[C@@H]1[C@@]24OO3 | 6.42 | 12.26 | 
49 | CC(C)CC[C@H]1C(=O)O[C@@H]2O[C@@]3(C)CC[C@H]4[C@H](C)CC[C@@H]1[C@@]24OO3 | 1.57 | 0.98 | 
50 | CC1CCC2C(CCc3ccccc3)C(=O)OC3OC4(C)CCC1C32O4 (stereo unspecified) |  |  | Relative activity (Plasmodium falciparum [6]): inactive; Relative activity (Plasmodium falciparum [7]): inactive
51 | C[C@@H]1CC[C@H]2[C@H](C)C(=O)O[C@@H]3O[C@@]4(C)CC[C@@H]1[C@]32OO4 | 0.14 | 0.67 | 
52 | CCCCCC[C@H]1C(=O)O[C@@H]2O[C@@]3(C)CC[C@H]4[C@H](C)CC[C@@H]1[C@@]24O3 |  |  | Relative activity (Plasmodium falciparum [3]): 0.07; Relative activity (Plasmodium falciparum [4]): 0.02
53 | CC(C)C[C@H]1C(=O)O[C@@H]2O[C@@]3(C)CC[C@H]4[C@H](C)CC[C@@H]1[C@@]24O3 |  |  | Relative activity (Plasmodium falciparum [6]): inactive; Relative activity (Plasmodium falciparum [7]): inactive
54 | C[C@]12CC[C@H]3CCCC[C@@]3(OO1)[C@H](OCc1ccccc1)O2 |  |  | Relative activity (Plasmodium falciparum [5]): 0.03
55 | C[C@@H]1CCC[C@@]23CO[C@@](C)(CC[C@@H]12)OO3 |  |  | Relative activity (Plasmodium falciparum [5]): 0.37
